Source: paper PMC10537604, “Development and Assessment of 1,5–Diarylpyrazole/Oxime Hybrids Targeting EGFR and JNK–2 as Antiproliferative Agents: A Comprehensive Study through Synthesis, Molecular Docking, and Evaluation” (Molecules, 2023)
Where two headings read alike, the source gives them in different places.

Key:
[1] = system: human hepatocellular carcinoma cell line HepG2; assay: WST-8 antiproliferative assay, HepG2; assay type: cell-based
Experimental: Compounds 7a–j, 8a–j, 9a–c, and 10a–c were evaluated for in vitro anticancer activities against five different cancer cell lines, namely, human colorectal adenocarcinoma cell lines DLD-1, human cervical cancer cell line Hela, human pancreatic cancer cell line SUIT-2, human myelogenous leukemia cell line K562, and human hepatocellular carcinoma cell line HepG2 using WST-8 assay at concentrations of 100 µM to investigate the growth inhibition percent (GI%) of each compound using daunorubicin as a reference drug. […]. […] So, as a conclusion on the SAR study of those compounds as antiproliferative agents, the oxime moiety potentiated the anticancer activity and electron donating groups on R1 and R2 played an important role on this activity. Moreover, the sulfamoyl moiety on R3 seems to play a potential role in the activity of the prepared compounds (Table 1).
All selected compounds and daunorubicin were recorded as the minimum concentration required to inhibit half cell growth (IC50) and the results are listed in Table 2.
Evaluation of anticancer activity was performed according to the standard water-soluble tetrazolium-8 (WST-8) assay at the Faculty of Engineering, Yamagata University, Yonezawa, Japan, using an MTP-310 absorbance microplate reader. The EGFR inhibitory assay was carried out at the Faculty of Engineering, Yamagata University, Yonezawa, Japan, according to the protocol enzyme linked immunosorbent assay (ELISA) kits (Douset sandwich ELISA test, recombinant mouse EGFR). The JNK-2 inhibitory assay was performed at the Faculty of Engineering, Yamagata University, Yonezawa, Japan, according to the protocol of enzyme-linked immunosorbent assay (ELISA), the assay was carried out using the JNK-2 kit (Simple Step ELISA, pT183/Y185, Abcam Company, Cambridge, CB2 0AX, UK). Apoptosis and cell cycle analysis was performed at Faculty of medicine, Yamagata University, Yamagata, Japan, using BD FACS melody. Molecular docking was performed at the Nano Medical Engineering Laboratory, RIKEN Cluster for Pioneering Researchers, RIEKN, Japan, using ICM-Pro 3.8 software (MolSoft L.L.C., San Diego, CA, USA).
According to the standard water-soluble tetrazolium-8 (WST-8) assay, the current synthesized compounds have been tested for their anticancer activities against different five cancer cell lines; DLD-1, Hela, K562, SUIT-2, and HepG2 and daunorubicin was used as reference drug by the WST-8 assay. The five cells were maintained in a suspension culture, (Dulbecco’s modified eagle medium (DMEM) for SUIT-2, Hela, and HepG2 or PRIM for K562 and DLD), supplemented with 5% FBS (Fetal Bovine Serum) containing 1% of a penicillin-streptomycin (1:1) mixture. A 100 μL aliquot of cells (10,000 cells/mL) was added to a 96 well plate and incubated for 24 h at 37 °C in a humidified incubator containing 5% CO2 in the air. After 24 h, a 10 μL aliquot of test compound (concentrations varying in the range of 10–150 µM) was added to each of the 96 wells and incubated for 24 h. Then A 10 μL WST-8 solution (mixture of WST-8 and 1-methoxy PMS) was added to each well and the incubation continued for 3 h. The visible absorbance at 450 nm and 630 nm as the reference wavelength of each well was quantified using an MTP-310 absorbance microplate reader. Daunorubicin was used as a positive control. The results of cytotoxicity were recorded as growth inhibition percentages and as IC50 values.

[2] = Nitric oxide release, Griess colorimetric method; assay type: physicochemical; conditions: phosphate buffer pH 7.4, N-acetylcysteine
Experimental: For the indirect determination of NO, the Griess colorimetric approach was utilized, which includes spectrophotometry measurements of the stable decomposition products NO2^− and NO3^−. This method requires that NO3^− is first reduced to NO2^− and then NO2^− is determined by the Griess reaction that includes two steps, the first step is a diazotization reaction in which the NO-derived nitrogen agent, dinitrogen trioxide (N2O3), which is produced by the spontaneous oxidation of NO with sulfanilamide to form the diazonium ion, is used. […] In order to evaluate thiol-induced NO generation from the appropriate compounds, including NO-donating oximes 8a–b, 8d–i, and 10a–c, they were incubated in aqueous phosphate buffer of pH 7.4 in the presence of excess N-acetylcysteine, which serves as a source of thiols that are essential for the release of NO from oximes. The signal intensity of the dye is proportional to the amount of NO released. To quantify the amount of NO released, a standard curve was made by measuring the change in absorbance of various concentrations of standard sodium nitrite solutions treated by the same way. […] At the first hour, the amount of nitric oxide released increased in compounds 8i, 8b, and 8h, while the maximum release of nitric oxide occurring in compounds 8b and 8h was at 2 h. Then, the amount of nitic oxide released declined, which may explain the biological importance of oxime moiety as a source of nitric oxide release in comparison with ketone intermediates 7a–j and 9a–c, as shown in the anticancer activity of oxime derivatives.
The nitrite calibration curve in addition to the absorbance of the tested compounds were measured on Shimadzu UV-160, UV-Visible spectrophotometer (Shimadzu, Tokyo, Japan). The tested compounds were prepared as solutions in DMF and diluted with the buffer system until a concentration of 100 mM. N-Acetyl cysteine solution was prepared in a concentration of 500 mM in methanol. Griess reagent consists of 0.1% w/v NED solution in water and sulfanilamide solution (1% w/v of sulfanilamide in 5% w/v phosphoric acid). Nitrite standard solution (0.1 M sodium nitrite in water) stock solution was prepared, from which a dilute solution of 100 μM nitrite solution was prepared by dilution 1 mL of the stock solution to 1000 mL with phosphate buffer of pH 7.4. From this solution, 4 serials 2-fold dilutions were performed to generate different concentrations of the nitrite solution (100.00, 50.00, 25.00, and 12.50 μM) and these concentrations were used for nitrite calibration curve.
Sulfanilamide and NEDD solutions were kept at 25 °C; […] of sulfanilamide solution was added to each dilution of the prepared standard nitrite solution. The mixture was left at 25 °C for 5–10 min protected from light. To this mixture, […] of the NEDD solution was added and the mixture was again left for 5–10 min at 25 °C protected from light. […] A plot of the average absorbance value for each concentration of the nitrite standard solution as a function of “Y” against nitrite concentration as a function of “X” was constructed to generate a standard nitrite calibration curve at pH 7.4.
The amount of NO released from the tested compounds 8a–b, 8d–I, and 10a–c was measured using the Griess colorimetric method either in phosphate buffer of pH 7.4 in the presence of N-acetyl cysteine, which serves as a source of thiols. The amount of NO released from the tested compounds was measured relative to NO released from standard sodium nitrite solution.
Different solutions of the tested compounds 8a–b, 8d–i, and 10a–c in DMF were diluted using phosphate buffer of pH 7.4 till a final concentration of 100 mM (test solutions). To […] of different test solutions, […] of N-acetyl cysteine solution was added and the obtained solution was kept in an incubator at 37 °C (treated solutions). […]

[3] = HepG2, 100 µM, WST-8 assay, read-out: Growth Inhibition (GI%) HepG2

Compound	inhibition at 100 µM [1, 3] [%]	Amount of NO Released (mol/mol) 1 h [2] [mol/mol]	Amount of NO Released (mol/mol) 2 h [2] [mol/mol]	Amount of NO Released (mol/mol) 3 h [2] [mol/mol]	Amount of NO Released (mol/mol) 4 h [2] [mol/mol]	inhibition at 100 µM ([1]; HepG2, read-out: Growth Inhibition (GI%) HepG2) [%]	IC50 ([1]; HepG2, read-out: IC50 HepG2) [µM]
COc1cc(/C(C)=N/O)ccc1OC(=O)c1cc(-c2ccccc2)n(-c2ccccc2)n1 [Compound 8a, (E)–4–(1–(Hydroxyimino)ethyl)2–methoxyphenyl 1,5–diphenyl–1H–pyrazole–3–carboxylate]	0	0.095 ± 0.036	0.121 ± 0.047	0.108 ± 0.042	0.056 ± 0.022		
COc1cc(/C(C)=N/O)ccc1OC(=O)c1cc(-c2ccc(C)cc2)n(-c2ccccc2)n1 [Compound 8b, (E)–4–(1–(Hydroxyimino)ethyl)–2–methoxyphenyl 1–phenyl–5–p–tolyl–1H–pyrazole–3–carboxylate]	107	0.102 ± 0.039	0.159 ± 0.019	0.105 ± 0.025	0.095 ± 0.030		
COc1cc(/C(C)=N/O)ccc1OC(=O)c1cc(-c2ccc(Cl)cc2)n(-c2ccccc2)n1 [Compound 8d, (E)–4–(1–(Hydroxyimino)ethyl)–2–methoxyphenyl 5–(4–chlorophenyl)–1–phenyl–1H–pyrazole–3–carboxylate]		0.096 ± 0.036	0.106 ± 0.040	0.101 ± 0.038	0.079 ± 0.030	98	23.3
COc1ccc(-c2cc(C(=O)Oc3ccc(/C(C)=N/O)cc3OC)nn2-c2ccccc2)cc1OC [Compound 8e, (E)–4–(1–(Hydroxyimino)ethyl)–2–methoxyphenyl 5–(3,4–dimethoxy phenyl)–1–phenyl–1H–pyrazole–3–carboxylate]	99	0.064 ± 0.022	0.120 ± 0.046	0.081 ± 0.030	0.048 ± 0.018		
COc1cc(/C(C)=N/O)ccc1OC(=O)c1cc(-c2ccccc2)n(-c2ccc(S(N)(=O)=O)cc2)n1 [Compound 8f, (E)–4–(1–(Hydroxyimino)ethyl)–2–methoxyphenyl 5–phenyl–1–(4–sulfamoyl phenyl)–1H–pyrazole–3–carboxylate]	80	0.096 ± 0.036	0.116 ± 0.045	0.079 ± 0.030	0.048 ± 0.018		
COc1cc(/C(C)=N/O)ccc1OC(=O)c1cc(-c2ccc(C)cc2)n(-c2ccc(S(N)(=O)=O)cc2)n1 [Compound 8g, (E)–4–(1–(Hydroxyimino)ethyl)–2–methoxyphenyl 1–(4–sulfamoylphenyl)–5–p–tolyl–1H–pyrazole–3–carboxylate]	93	0.083 ± 0.035	0.154 ± 0.044	0.141 ± 0.039	0.089 ± 0.019		
COc1ccc(-c2cc(C(=O)Oc3ccc(/C(C)=N/O)cc3OC)nn2-c2ccc(S(N)(=O)=O)cc2)cc1 [Compound 8h, (E)–4–(1–(Hydroxyimino)ethyl)–2–methoxyphenyl 5–(4–methoxyphenyl)–1–(4–sulfamoyl phenyl)–1H–pyrazole–3–carboxylate]	63	0.099 ± 0.029	0.158 ± 0.014	0.104 ± 0.033	0.094 ± 0.0022		
